Results as given in patent US20140045697A1, “ANDROSTANEDIOL DERIVATIVES AS PLANT GROWTH REGULATOR COMPOUNDS” (priority 2011, published 2014).

Legend:
[1] = system: Phaseolus vulgaris L. cv. Pinto; assay: Bean second and third internode elongation bioassay (glass house); assay type: in vivo; settings: for % increase compared with control, Total elongation (internode 2 + internode 3) / % increase compared with control, Internode 2 / % increase compared with control, Internode 3: applied through wound site, scored after 10 days; for % increase compared with control, Internode 2 / % increase compared with control, Internode 3: 8 replicates; for elongation of internode 3 (in words) / elongation of internodes by rate (in words): Table 2; for elongation of internode 3 (in words): standard at low concentrations; for elongation of internodes by rate (in words): rates 6, 20 and 200 per plant
Procedure: Bean seeds of Phaseolus vulgaris L. cv. Pinto were germinated in drench soil in 140 ml pots; pots with 7-day old seedlings were thinned out to one seedling per pot. Young plants of 12-14 days with 2-3 mm long second internodes were used in bioassay screening experiments. Germination, early plant growth as well the screening of growth symptoms of young plants after application of compounds of formula (I) were done under similar glass house conditions: temperature 22° C. day/18° C. night, humidity 60%, day length 15 h day/9 h night. Plants were watered manually on a daily basis, as needed.
Compounds of formula (I) were applied through a wound site using a micropipette. The wound site was introduced through removal of one of the twin leaves of the first set of true leaves. Small amounts of compounds were delivered at a time. The wound site was sealed with […] of Vaseline that was applied using a cotton ear bud. Compounds of formula (I) were dissolved in 99% ethanol and for the control/check a similar volume was used as for all treatments and in this case, the solution only contained 99% ethanol. Dilutions of stock solutions were made with distilled water. Eight replicates were included per treatment, including for the control. The scoring of growth elongation effects was performed after 10 days.
Growth promotion of bean plants by compounds of formula (I) was tested by scoring elongation of the second and third internode of bean plants. Scoring of growth stimulation effects was done by careful cutting and measuring the length of the two internodes. All compounds were tested at three rates (in […] per plant): 6, 20 and 200. Values represent the average percentage increase in stem elongation compared with the untreated control.

maize = assay: Field trials on maize at 2 locations in South Africa (Kransfontein, Lindley), spray application at 5-6 leaf growth stage; assay type: in vivo; settings: for Number of cobs per plot / Plant height 9-10 leaf stage / Plant height 10 leaf stage / Yield / Plant height 6-7 leaf stage / Plant height 9 leaf stage: mean of 6 replicates
Procedure: Field trials were carried out at 2 locations in South Africa on maize. Treatments as shown in tables 3 and 4 were applied by spray application at 5-6 leaf growth stage. Assessments were made of plant height, number of maize cobs per plot, and total maize yield at the end of the trial. The results in Table 3 and 4 are the mean of 6 replicates per treatment. The standard is an analog of the Formula I of the present invention, as described in WO2009/115060 (formula IV).

## CC(C)[C@@H](C)[C@@H](O)[C@H](O)[C@@H](C)[C@H]1CC[C@H]2[C@@H]3COC(=O)[C@H]4C[C@H](O)[C@H](O)C[C@]4(C)[C@H]3CC[C@]12C [Standard, 24-epi-brassinolide, reference compound]
[1]; 6 μg per plant
  % increase compared with control, Total elongation (internode 2 + internode 3): 154%
  % increase compared with control, Internode 2: 150%
  % increase compared with control, Internode 3: 4%
[1]
  elongation of internode 3 (in words): almost no elongation of the third internode
maize; Kransfontein, 0.3 g AI/ha
  Number of cobs per plot, % increase compared to untreated control: −4.3%
  Plant height 9-10 leaf stage, % increase compared to untreated control: 1.7%
  Plant height 10 leaf stage, % increase compared to untreated control: 2.1%
  Yield, % increase compared to untreated control: −2.8%
  Number of cobs per plot: 33.3
  Plant height 9-10 leaf stage: 36.3 cm
  Plant height 10 leaf stage: 48.7 cm
  Yield: 4017.9 kg/ha
maize; Kransfontein, 0.6 g AI/ha
  Number of cobs per plot, % increase compared to untreated control: −2.9%
  Plant height 9-10 leaf stage, % increase compared to untreated control: 3.6%
  Plant height 10 leaf stage, % increase compared to untreated control: 3.4%
  Yield, % increase compared to untreated control: −3.6%
  Number of cobs per plot: 33.8
  Plant height 9-10 leaf stage: 37.0 cm
  Plant height 10 leaf stage: 49.3 cm
  Yield: 3985.2 kg/ha
maize; Lindley, 0.3 g AI/ha
  Number of cobs per plot, % increase compared to untreated control: 1.1%
  Plant height 6-7 leaf stage, % increase compared to untreated control: 3.4%
  Plant height 9 leaf stage, % increase compared to untreated control: 1.6%
  Yield, % increase compared to untreated control: 2.0%
  Number of cobs per plot: 60.0
  Plant height 6-7 leaf stage: 21.5 cm
  Plant height 9 leaf stage: 31.0 cm
  Yield: 10976.9 kg/ha
maize; Lindley, 0.6 g AI/ha
  Number of cobs per plot, % increase compared to untreated control: 2.5%
  Plant height 6-7 leaf stage, % increase compared to untreated control: 1.9%
  Plant height 9 leaf stage, % increase compared to untreated control: 2.6%
  Yield, % increase compared to untreated control: 1.2%
  Number of cobs per plot: 60.8
  Plant height 6-7 leaf stage: 21.2 cm
  Plant height 9 leaf stage: 31.3 cm
  Yield: 10890.5 kg/ha

## CO[C@]12C[C@H](O)CC[C@]1(C)[C@H]1CC[C@]3(C)[C@@H](O)CC[C@H]3[C@@H]1CC2=O [Compound P3, 5-methoxy-3α,17β-dihydroxyl-5α-androstan-6-one]
[1]; 6 μg per plant
  % increase compared with control, Total elongation (internode 2 + internode 3): 17%
  % increase compared with control, Internode 2: 13%
  % increase compared with control, Internode 3: 4%
[1]; 20 μg per plant
  % increase compared with control, Total elongation (internode 2 + internode 3): 54%
  % increase compared with control, Internode 2: 6%
  % increase compared with control, Internode 3: 48%
[1]; 200 μg per plant
  % increase compared with control, Total elongation (internode 2 + internode 3): 113%
  % increase compared with control, Internode 2: 43%
  % increase compared with control, Internode 3: 70%
[1]
  elongation of internode 3 (in words): strong elongation of internode 3
  elongation of internodes by rate (in words): elongation of both internodes at all three rates tested
maize; Kransfontein, 0.3 g AI/ha
  Number of cobs per plot, % increase compared to untreated control: 0.5%
  Plant height 9-10 leaf stage, % increase compared to untreated control: 6.4%
  Plant height 10 leaf stage, % increase compared to untreated control: 3.8%
  Yield, % increase compared to untreated control: 1.7%
  Number of cobs per plot: 35.0
  Plant height 9-10 leaf stage: 38.0 cm
  Plant height 10 leaf stage: 49.5 cm
  Yield: 4203.2 kg/ha
maize; Kransfontein, 0.6 g AI/ha
  Number of cobs per plot, % increase compared to untreated control: 7.7%
  Plant height 9-10 leaf stage, % increase compared to untreated control: 3.1%
  Plant height 10 leaf stage, % increase compared to untreated control: 4.2%
  Yield, % increase compared to untreated control: 2.3%
  Number of cobs per plot: 37.5
  Plant height 9-10 leaf stage: 36.8 cm
  Plant height 10 leaf stage: 49.7 cm
  Yield: 4227.3 kg/ha
maize; Lindley, 0.3 g AI/ha
  Number of cobs per plot, % increase compared to untreated control: 2.0%
  Plant height 6-7 leaf stage, % increase compared to untreated control: 4.8%
  Plant height 9 leaf stage, % increase compared to untreated control: 5.9%
  Yield, % increase compared to untreated control: 3.3%
  Number of cobs per plot: 60.5
  Plant height 6-7 leaf stage: 21.8 cm
  Plant height 9 leaf stage: 32.3 cm
  Yield: 1115.9 kg/ha
maize; Lindley, 0.6 g AI/ha
  Number of cobs per plot, % increase compared to untreated control: 4.5%
  Plant height 6-7 leaf stage, % increase compared to untreated control: 3.4%
  Plant height 9 leaf stage, % increase compared to untreated control: 8.9%
  Yield, % increase compared to untreated control: 3.1%
  Number of cobs per plot: 62.0
  Plant height 6-7 leaf stage: 21.5 cm
  Plant height 9 leaf stage: 33.2 cm
  Yield: 11099.4 kg/ha

## C[C@]12CCC3[C@@H](CC(F)(F)[C@H]4C[C@H](O)CC[C@]34C)C1CC[C@@H]2O (stereo partly drawn) [Compound P2, 6α,6β-difluoro-3α,17β-diol-5α-androstan]
[1]; 6 μg per plant
  % increase compared with control, Total elongation (internode 2 + internode 3): 0%
  % increase compared with control, Internode 2: 0%
  % increase compared with control, Internode 3: 0%
[1]; 20 μg per plant
  % increase compared with control, Total elongation (internode 2 + internode 3): 160%
  % increase compared with control, Internode 2: 50%
  % increase compared with control, Internode 3: 110%
[1]; 200 μg per plant
  % increase compared with control, Total elongation (internode 2 + internode 3): 54%
  % increase compared with control, Internode 2: 31%
  % increase compared with control, Internode 3: 23%
[1]
  elongation of internode 3 (in words): strong elongation of internode 3
  elongation of internodes by rate (in words): at the highest two rates, but not at the lowest rate

## C[C@]12CCC3[C@@H](CC(F)(F)[C@@]4(F)C[C@H](O)CC[C@]34C)C1CC[C@@H]2O (stereo partly drawn) [Compound P1, 5-Fluoro-6α,6β-difluoro-3α,17β-dihydroxy-5α-androstan]
[1]; 6 μg per plant
  % increase compared with control, Total elongation (internode 2 + internode 3): 0%
  % increase compared with control, Internode 2: 0%
  % increase compared with control, Internode 3: 0%
[1]; 20 μg per plant
  % increase compared with control, Total elongation (internode 2 + internode 3): 160%
  % increase compared with control, Internode 2: 44%
  % increase compared with control, Internode 3: 116%
[1]; 200 μg per plant
  % increase compared with control, Total elongation (internode 2 + internode 3): 108%
  % increase compared with control, Internode 2: 30%
  % increase compared with control, Internode 3: 78%
[1]
  elongation of internode 3 (in words): strong elongation of internode 3
  elongation of internodes by rate (in words): at the highest two rates, but not at the lowest rate
